Laboratory results as given in patent US20250171423A1, “PHARMACEUTICAL COMPOUNDS FOR THE TREATMENT OF COMPLEMENT MEDIATED DISORDERS” (Achillion Pharmaceuticals, Inc., priority 2020, published 2025).

Biological target: T1, Human complement C1s enzyme (Homo sapiens, UniProt P09871)
T1 construct: purified from human serum, Complement Technology, Inc; purchased Complement Technology, Inc; host or cells: human serum
T1 sequence (P09871 438-688 limits assumed): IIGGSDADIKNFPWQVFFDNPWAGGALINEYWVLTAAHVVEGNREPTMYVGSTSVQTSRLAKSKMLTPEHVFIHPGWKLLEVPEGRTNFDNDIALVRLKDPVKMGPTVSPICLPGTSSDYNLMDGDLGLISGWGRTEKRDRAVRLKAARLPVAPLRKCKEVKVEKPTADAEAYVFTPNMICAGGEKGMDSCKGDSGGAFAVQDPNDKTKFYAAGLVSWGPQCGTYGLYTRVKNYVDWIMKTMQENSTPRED
T1 sequence (P09871 16-437 partner limits assumed): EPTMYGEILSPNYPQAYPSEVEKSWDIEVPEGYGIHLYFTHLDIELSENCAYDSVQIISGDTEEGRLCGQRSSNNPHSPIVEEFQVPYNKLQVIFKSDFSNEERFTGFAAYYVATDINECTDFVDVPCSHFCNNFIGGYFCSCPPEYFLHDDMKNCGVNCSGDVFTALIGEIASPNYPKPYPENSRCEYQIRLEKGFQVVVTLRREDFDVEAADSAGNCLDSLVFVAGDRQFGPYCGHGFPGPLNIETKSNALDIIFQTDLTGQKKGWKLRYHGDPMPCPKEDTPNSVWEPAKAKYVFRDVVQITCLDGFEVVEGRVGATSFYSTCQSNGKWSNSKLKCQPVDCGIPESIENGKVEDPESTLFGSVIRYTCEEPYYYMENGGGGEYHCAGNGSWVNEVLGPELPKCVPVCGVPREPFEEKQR
Assay: Human C1s Enzyme Assay
Type: biochemical
Conditions: human C1s 1.16 nM, 5 min preincubation, substrate Z-L-Lys-SBzl 100 μM, A405; read-out: C1s Protease Activity
How it was run: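 IC50 values were fitted by nonlinear regression to rates measured as A405 every 30 s for 30 min. The thioester substrate Z-L-Lys-SBzl and Ellman's reagent were each at 100 μM. Serum-derived C1s at 1.16 nM final had 5 min of room-temperature preincubation with compound (pH 7.5 Tris buffer, 1 M NaCl).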

Row | SMILES | IC50 [nM]
1 | COCCOCCCC(=O)NCC(=O)N1[C@H]2C[C@@]2(C)C[C@H]1C(=O)NCc1cc(C(=N)N)cs1 [Compound 136, (1S,3S,5S)-N-((4-carbamimidoylthiophen-2-yl)methyl)-2-((4-(2-methoxyethoxy)butanoyl)glycyl)-5-methyl-2-azabicyclo[3.1.0]hexane-3-carboxamide] | 100 to 1000
2 | C[C@@]12C[C@@H]1N(C(=O)CNC(=O)c1cccc(Oc3ccccc3)c1)[C@H](C(=O)NCc1cc(C(=N)N)cs1)C2 [Compound 137, (1S,3S,5S)-N-((4-carbamimidoylthiophen-2-yl)methyl)-5-methyl-2-((3-phenoxbenzoyl)glycyl)-2-azabicyclo[3.1.0]hexane-3-carboxamide] | < 100
3 | CC(C)O[C@@H]1C[C@@H](C(=O)NCc2cc(C(=N)N)cs2)N(C(=O)CNC(=O)c2ccc(Oc3ccccc3)cc2)C1 [Compound 138, (2S,4R)-N-((4-carbamimidoylthiophen-2-yl)methyl)-4-isopropoxy-1-((4-phenoxybenzoyl)glycyl)pyrrolidine-2-carboxamide] | < 100
4 | C[C@@]12C[C@@H]1N(C(=O)CNC(=O)c1ccc(Oc3ccccc3)cc1)[C@H](C(=O)NCc1cc(/C(N)=N/NS(=O)(=O)c3ccccc3)cs1)C2 [Compound 139, (1S,3S,5S)-N-((4-(imino(2-(phenylsulfonyl)hydrazineyl)methyl)thiophen-2-yl)methyl)-5-methyl-2-((4-phenoxybenzoyl)glycyl)-2-azabicyclo[3.1.0]hexane-3-carboxamide] | > 1000
5 | CC1(c2ccc(OCCCC(=O)NCC(=O)N3[C@H]4C[C@@]4(C)C[C@H]3C(=O)NCc3cc(C(=N)N)cs3)cc2)COC1 [Compound 140, (1S,3S,5S)-N-((4-carbamimidoylthiophen-2-yl)methyl)-5-methyl-2-((4-(4-(3-methyloxetan-3-yl)phenoxy)butanoyl)glycyl)-2-azabicyclo[3.1.0]hexane-3-carboxamide] | < 100
6 | CC(=O)NCCOC[C@@]12C[C@@H]1N(C(=O)CNC(=O)c1ccc(Oc3ccccc3)cc1)[C@H](C(=O)N[C@H](C)c1cc(C(=N)N)cs1)C2 [Compound 141, (1S,3S,5R)-5-((2-acetamidoethoxy)methyl)-N-((R)-1-(4-carbamimidoylthiophen-2-yl)ethyl)-2-((4-phenoxybenzoyl)glycyl)-2-azabicyclo[3.1.0]hexane-3-carboxamide] | < 100
7 | CC(=O)NCCOC[C@@]12C[C@@H]1N(C(=O)CNC(=O)CCCOc1ccccc1)[C@H](C(=O)N[C@H](C)c1cc(C(=N)N)cs1)C2 [Compound 142, (1S,3S,5R)-5-((2-acetamidoethoxy)methyl)-N-((R)-1-(4-carbamimidoylthiophen-2-yl)ethyl)-2-((4-phenoxybutanoyl)glycyl)-2-azabicyclo[3.1.0]hexane-3-carboxamide] | 100 to 1000
8 | C[C@@]12C[C@@H]1N(C(=O)CNC(=O)c1ccc(Oc3ccccc3)nc1)[C@H](C(=O)NCc1cc(C(=N)N)cs1)C2 [Compound 143, (1S,3S,5S)-N-((4-carbamimidoylthiophen-2-yl)methyl)-5-methyl-2-((6-phenoxynicotinoyl)glycyl)-2-azabicyclo[3.1.0]hexane-3-carboxamide] | < 100
9 | C[C@@]12C[C@@H]1N(C(=O)CN1Cc3ccc(Oc4ccccc4)cc3C1=O)[C@H](C(=O)NCc1cc(C(=N)N)cs1)C2 [Compound 144, (1S,3S,5S)-N-[(4-carbamimidoylthiophen-2-yl)methyl]-5-methyl-2-[2-(1-oxo-6-phenoxy-3H-isoindol-2-yl)acetyl]-2-azabicyclo[3.1.0]hexane-3-carboxamide] | < 100
10 | C[C@@]12C[C@@H]1N(C(=O)CNC(=O)c1ccccc1Oc1ccccc1)[C@H](C(=O)NCc1cc(C(=N)N)cs1)C2 [Compound 145, (1S,3S,5S)-N-((4-carbamimidoylthiophen-2-yl)methyl)-5-methyl-2-((2-phenoxybenzoyl)glycyl)-2-azabicyclo[3.1.0]hexane-3-carboxamide] | < 100
11 | N=C(N)c1csc(CNC(=O)[C@@H]2C[C@@H](C(F)F)CN2C(=O)CNC(=O)CCCOc2ccccc2)c1 [Compound 147, (2S,4R)-N-((4-carbamimidoylthiophen-2-yl)methyl)-4-(difluoromethyl)-1-((4-phenoxybutanoyl)glycyl)pyrrolidine-2-carboxamide] | 100 to 1000
12 | C[C@@H](NC(=O)[C@@H]1C[C@]2(COCC(=O)O)C[C@@H]2N1C(=O)CNC(=O)CCCOc1ccccc1)c1cc(C(=N)N)cs1 [Compound 148, 2-(((1S,3S,5R)-3-(((R)-1-(4-carbamimidoylthiophen-2-yl)ethyl)carbamoyl)-2-((4-phenoxybutanoyl)glycyl)-2-azabicyclo[3.1.0]hexan-5-yl)methoxy)acetic acid] | < 100
13 | COC[C@@]1(F)C[C@@H](C(=O)N[C@H](C)c2cc(C(=N)N)cs2)N(C(=O)CNC(=O)CCCOc2ccccc2)C1 [Compound 149, (2S,4R)-N-((R)-1-(4-carbamimidoylthiophen-2-yl)ethyl)-4-fluoro-4-(methoxymethyl)-1-((4-phenoxybutanoyl)glycyl)pyrrolidine-2-carboxamide] | < 100
14 | Cc1ccccc1[C@H]1C[C@@H](C(=O)NCc2cc(C(=N)N)cs2)N(C(=O)CNC(=O)CCCOc2ccccc2)C1 [Compound 150] | < 100
15 | N=C(N)c1csc(CNC(=O)[C@@H]2C[C@@H](C(F)F)CN2C(=O)CNC(=O)c2ccc(Oc3ccccc3)cc2)c1 [Compound 151, (2S,4R)-N-((4-carbamimidoylthiophen-2-yl)methyl)-4-(difluoromethyl)-1-((4-phenoxybenzoyl)glycyl)pyrrolidine-2-carboxamide] | < 100
16 | C[C@@H](NC(=O)[C@@H]1C[C@]2(COCCNC(=O)COCCOCCNC(=O)COCCOCCNC(=O)CC[C@H](NC(=O)CCCCCCCCCCCCCCCCC(=O)O)C(=O)O)C[C@@H]2N1C(=O)CNC(=O)CCCOc1ccccc1)c1cc(C(=N)N)cs1 [Compound 152, (S)-1-((1S,3S,5R)-3-(((R)-1-(4-carbamimidoylthiophen-2-yl)ethyl)carbamoyl)-2-((4-phenoxybutanoyl)glycyl)-2-azabicyclo[3.1.0]hexan-5-yl)-27-carboxy-6,15,24,29-tetraoxo-2,8,11,17,20-pentaoxa-5,14,23,28-tetraazahexatetracontan-46-oic acid] | < 100
17 | C[C@@]12C[C@@H]1N(C(=O)CNC(=O)c1ccc(Oc3ccccn3)cc1)[C@H](C(=O)NCc1cc(C(=N)N)cs1)C2 [Compound 153, (1S,3S,5S)-N-((4-carbamimidoylthiophen-2-yl)methyl)-5-methyl-2-((4-(pyridin-2-yloxy)benzoyl)glycyl)-2-azabicyclo[3.1.0]hexane-3-carboxamide] | < 100
18 | C[C@@]12C[C@@H]1N(C(=O)CNC(=O)c1ccc(Oc3ccc(C(F)(F)F)cn3)cc1)[C@H](C(=O)NCc1cc(C(=N)N)cs1)C2 [Compound 154, (1S,3S,5S)-N-((4-carbamimidoylthiophen-2-yl)methyl)-5-methyl-2-((4-((5-(trifluoromethyl)pyridin-2-yl)oxy)benzoyl)glycyl)-2-azabicyclo[3.1.0]hexane-3-carboxamide] | < 100
19 | Cc1ccccc1[C@@H]1C[C@@H](C(=O)NCc2cc(C(=N)N)cs2)N(C(=O)CNC(=O)CCCOc2ccccc2)C1 [Compound 155, (2S,4S)-N-((4-carbamimidoylthiophen-2-yl)methyl)-1-((4-phenoxybutanoyl)glycyl)-4-(o-tolyl)pyrrolidine-2-carboxamide] | < 100
20 | N=C(N)c1csc(CNC(=O)[C@@H]2C[C@@H](c3ccccc3)CN2C(=O)CNC(=O)CCCOc2ccccc2)c1 [Compound 156, (2S,4S)-N-((4-carbamimidoylthiophen-2-yl)methyl)-1-((4-phenoxybutanoyl)glycyl)-4-phenylpyrrolidine-2-carboxamide] | < 100
21 | N=C(N)c1csc(CNC(=O)[C@@H]2C[C@H](c3ccccc3)CN2C(=O)CNC(=O)CCCOc2ccccc2)c1 [Compound 157, (2S,4R)-N-((4-carbamimidoylthiophen-2-yl)methyl)-1-((4-phenoxybutanoyl)glycyl)-4-phenylpyrrolidine-2-carboxamide] | < 100
22 | C[C@@H](NC(=O)[C@@H]1C[C@@H](c2ccccc2)CN1C(=O)CNC(=O)CCCOc1ccccc1)c1cc(C(=N)N)cs1 [Compound 158, (2S,4S)-N-((R)-1-(4-carbamimidoylthiophen-2-yl)ethyl)-1-((4-phenoxybutanoyl)glycyl)-4-phenylpyrrolidine-2-carboxamide] | < 100
23 | N=C(N)c1csc(CNC(=O)[C@@H]2C[C@H](c3ccc(F)cc3)CN2C(=O)CNC(=O)CCCOc2ccccc2)c1 [Compound 159, (2S,4R)-N-((4-carbamimidoylthiophen-2-yl)methyl)-4-(4-fluorophenyl)-1-((4-phenoxybutanoyl)glycyl)pyrrolidine-2-carboxamide] | < 100
